These results are taken from ChEMBL document CHEMBL2046429, “Synthesis and biological evaluation of N-aryl salicylamides with a hydroxamic acid moiety at 5-position as novel HDAC-EGFR dual inhibitors” (Bioorg Med Chem, 2012).

A value given as a limit tells only on which side of the number the result lay.

One assay deals with HL-60. Put plainly: Antiproliferative activity against human HL60 cells after 48 hrs by MTT assay. It is filed as functional, cell-based. To be noted: HL-60, 48 h.
The next assay addresses Histone deacetylase. Put plainly: Inhibition of HDAC derived from human HeLa cell nuclear extract using Boc-Lys(acetyl)-AMC as substrate incubated for 5 mins prior to substrate addition measured after 30 mins by fluorimetry. It is filed as protein assay.
The subject of another assay is A549. Put plainly: Antiproliferative activity against human A549 cells after 48 hrs by MTT assay. The format is functional, cell-based. To be noted: A549, 48 h.
The next assay deals with A-431. Put plainly: Antiproliferative activity against human A431 cells after 48 hrs by MTT assay. The format is functional, cell-based. To be noted: A-431, 48 h.
The target in assay [1] is Epidermal growth factor receptor (Homo sapiens, UniProt P00533). Put plainly: Inhibition of EGFR derived from human A431 cell membrane assessed as inhibition of poly-Glu-Tyr phosphorylation after 30 mins by ELISA assay. It is filed as cell-based, A-431.
Sequence of Epidermal growth factor receptor (P00533 whole entry): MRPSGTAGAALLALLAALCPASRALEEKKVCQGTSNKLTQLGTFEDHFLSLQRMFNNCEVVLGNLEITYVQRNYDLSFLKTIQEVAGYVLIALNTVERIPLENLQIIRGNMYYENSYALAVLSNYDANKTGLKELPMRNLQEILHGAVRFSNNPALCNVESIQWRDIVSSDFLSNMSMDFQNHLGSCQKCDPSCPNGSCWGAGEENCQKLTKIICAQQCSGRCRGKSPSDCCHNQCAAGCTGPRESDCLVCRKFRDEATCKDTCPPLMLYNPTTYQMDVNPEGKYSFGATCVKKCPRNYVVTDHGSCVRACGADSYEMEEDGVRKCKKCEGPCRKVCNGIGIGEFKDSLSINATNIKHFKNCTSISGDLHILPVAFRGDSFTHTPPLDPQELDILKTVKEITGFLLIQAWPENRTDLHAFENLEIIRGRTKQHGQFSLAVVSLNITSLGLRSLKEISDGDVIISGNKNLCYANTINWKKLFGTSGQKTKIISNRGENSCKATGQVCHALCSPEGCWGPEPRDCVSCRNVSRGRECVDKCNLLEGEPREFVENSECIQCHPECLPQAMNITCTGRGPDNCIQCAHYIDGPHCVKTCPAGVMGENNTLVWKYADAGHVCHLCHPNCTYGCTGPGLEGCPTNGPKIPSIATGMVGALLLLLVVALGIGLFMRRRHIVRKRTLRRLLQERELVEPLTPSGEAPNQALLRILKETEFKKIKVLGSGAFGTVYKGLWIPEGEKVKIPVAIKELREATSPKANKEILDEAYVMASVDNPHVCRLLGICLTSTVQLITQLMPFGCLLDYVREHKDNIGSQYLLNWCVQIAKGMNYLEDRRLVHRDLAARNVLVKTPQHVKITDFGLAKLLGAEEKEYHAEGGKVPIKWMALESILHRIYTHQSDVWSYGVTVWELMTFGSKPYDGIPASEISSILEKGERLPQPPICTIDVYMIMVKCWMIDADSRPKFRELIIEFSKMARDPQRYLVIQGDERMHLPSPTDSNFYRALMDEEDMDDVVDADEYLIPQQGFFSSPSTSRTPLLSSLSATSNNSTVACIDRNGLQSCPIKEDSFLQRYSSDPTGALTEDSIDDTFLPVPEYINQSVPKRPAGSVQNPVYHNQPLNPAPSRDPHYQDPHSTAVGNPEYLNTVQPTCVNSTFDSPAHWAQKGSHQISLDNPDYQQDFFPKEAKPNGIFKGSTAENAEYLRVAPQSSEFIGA

As to `O=C(CCCCCC(=O)Nc1ccc(O)c(C(=O)Nc2ccccc2)c1)NO`, the IC50 in the assay with HL-60 is 20.3 µM; on Histone deacetylase, 1.89 µM; with A549, 14.6 µM; with A-431, 5.85 µM; in assay [1] it was 2.34 µM.

On to `O=C(CCCCCC(=O)Nc1ccc(O)c(C(=O)Nc2cccc(F)c2)c1)NO`, for which the IC50 in the assay on HL-60 is greater than 100 µM; against Histone deacetylase, 3.59 µM; in the assay with A549 it was 37.2 µM; in the assay with A-431, 4.28 µM; in assay [1], 1.41 µM.

In the case of `O=C(CCCCCC(=O)Nc1ccc(O)c(C(=O)Nc2ccc(F)c(F)c2)c1)NO`, the IC50 is greater than 100 µM with HL-60; 6.02 µM against Histone deacetylase; 70.1 µM in the assay on A549; 4.01 µM in the assay on A-431; 2.22 µM in assay [1].

In the case of `O=C(CCCCCC(=O)Nc1ccc(O)c(C(=O)Nc2ccc(F)c(Cl)c2)c1)NO`, the IC50 is greater than 100 µM in the assay on HL-60; 3.02 µM on Histone deacetylase; 21.1 µM in the assay with A549; 3.48 µM with A-431; 3.53 µM in assay [1].

Turning to `O=C(CCCCCC(=O)Nc1ccc(O)c(C(=O)Nc2cccc(C(F)(F)F)c2)c1)NO`, the half-maximal inhibitory concentration (IC50) in the assay with HL-60 is greater than 100 µM; against Histone deacetylase, 3.19 µM; in the assay on A549 it was 25.7 µM; in the assay on A-431, 2.75 µM; in assay [1] it was 4.2 µM.

Regarding `C#Cc1cccc(NC(=O)c2cc(NC(=O)CCCCCC(=O)NO)ccc2O)c1`, the IC50 with HL-60 is greater than 100 µM; on Histone deacetylase, 4.09 µM; with A549 it was 76.2 µM; in the assay with A-431, 5.75 µM; in assay [1] it was 3.31 µM.

For the compound `O=C(CCCCCC(=O)Nc1ccc(O)c(C(=O)Nc2ccc(Cl)c(Cl)c2)c1)NO`, the IC50 with HL-60 is greater than 100 µM; on Histone deacetylase, 3.65 µM; with A549, 17.8 µM; in the assay on A-431 it was 3.8 µM; in assay [1], 1.8 µM.

As to `O=C(CCCCCC(=O)Nc1ccc(O)c(C(=O)Nc2ccc(Cl)c(C(F)(F)F)c2)c1)NO`, the IC50 is greater than 100 µM in the assay on HL-60; 3.48 µM on Histone deacetylase; 24.1 µM with A549; 4.14 µM in the assay with A-431; 1.41 µM in assay [1].

For `O=C(CCCCCC(=O)Nc1ccc(O)c(C(=O)Nc2ccc(OCc3cccc(F)c3)c(Cl)c2)c1)NO`, the IC50 with HL-60 was greater than 100 µM; at Histone deacetylase it was 3.01 µM; with A549 it was 12.4 µM; in the assay on A-431, 2.6 µM; in assay [1] it was 1.1 µM.

Consider `C#Cc1cccc(NC(=O)c2cc(NC(=O)CCCCCCC(=O)NO)ccc2O)c1`, for which the half-maximal inhibitory concentration (IC50) in the assay on HL-60 was greater than 100 µM; on Histone deacetylase it was 2.03 µM; in the assay with A549, 43.6 µM; in the assay with A-431, 6.11 µM; in assay [1], 2.25 µM.

In turn, `COc1cc(O)c(C(=O)Nc2ccc(F)c(Cl)c2)cc1NC(=O)CCCCCC(=O)NO` registered an IC50 on Histone deacetylase of 1.09 µM.

Regarding `C#Cc1cccc(NC(=O)c2cc(NC(=O)CCCCCC(=O)NO)c(OC)cc2O)c1`, the IC50 in the assay on HL-60 was determined as 28.6 µM; at Histone deacetylase it was 1.86 µM; in the assay with A549, 18.4 µM; with A-431, 4.68 µM; in assay [1], 1.12 µM.

Turning to `C#Cc1cccc(NC(=O)c2cccc(NC(=O)CCCCCC(=O)NO)c2)c1`, the IC50 in the assay on HL-60 was greater than 100 µM; against Histone deacetylase, 3.27 µM; with A549, 37.6 µM; in the assay on A-431, 7.08 µM; in assay [1], 6.17 µM.

With `C#Cc1cccc(NC(=O)c2cc(NC(=O)CCCCCC(=O)NO)ccc2OC)c1`, the half-inhibitory concentration (IC50) was found to be 7.1 µM in the assay on HL-60; 0.56 µM at Histone deacetylase; 40.7 µM with A549; 4.2 µM with A-431; 5.16 µM in assay [1].

Consider `C#Cc1cccc(NC(=O)c2cc(OCCCCCCC(=O)NO)ccc2O)c1`, for which the IC50 is 30.9 µM in the assay on HL-60; 1.21 µM against Histone deacetylase; 15.5 µM in the assay on A549; 1.88 µM in the assay with A-431; 0.9 µM in assay [1].
